Laboratory results as given in PubChem BioAssay (NCI).
Values joined by “and” are separate entries in the source; they are usually repeats but may differ in a detail not shown here. Equal values may be shown once.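 Five concentrations, 48 hours, 96-well plates. GI50 = concentration required for 50% inhibition of growth. TGI: total growth inhibition.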

Key:
Experiment in all cases: NCI-60 cell line screen, 48 h
[1] = system: CAKI-1 renal
[2] = system: HCT-116 colon
[3] = system: KM12 colon
[4] = system: M14 melanoma
[5] = system: MDA-MB-231 breast
[6] = system: NCI-H460 lung
[7] = system: OVCAR-3 ovarian
[8] = system: PC-3 prostate
[9] = system: SK-MEL-5 melanoma
[10] = system: T-47D breast

Row | SMILES | GI50 [1] | TGI [1] | GI50 [2] | TGI [2] | GI50 [3] | TGI [3] | GI50 [4] | TGI [4] | GI50 [5] | TGI [5] | GI50 [6] | TGI [6] | GI50 [7] | TGI [7] | GI50 [8] | TGI [8] | GI50 [9] | TGI [9] | GI50 [10] | TGI [10]
1 | Nc1nc(-c2ccc3c(c2)/C(=C\c2cc(Br)c(O)c(Br)c2)C(=O)N3)cs1 | > 25 µM | > 25 µM | 12.9 µM | > 25 µM | 10.4 µM | > 25 µM | 5.02 µM | 11.8 µM | 17.3 µM | > 25 µM | 16.4 µM | > 25 µM | 8.14 µM | 20.4 µM | 13.6 µM | > 25 µM | 5.4 µM | 12.1 µM | 15.1 µM | > 25 µM
2 | CCC[CH2][Sn]1([CH2]CCC)[O]C(=O)c2cccc([N+](=O)[O-])c2C(=O)[O]1 | 0.332 µM | 1.39 µM | 0.435 µM | 1.62 µM | 1.6 µM | 3.16 µM | 0.682 µM | 2.07 µM | 0.271 µM | 1.04 µM | 1.66 µM | 3.57 µM | 1.06 µM | 2.3 µM | 1.06 µM | 2.45 µM | 0.919 µM | 2.22 µM | 0.0604 µM | 0.27 µM
3 | C[C@]12CCC(=O)C=C1C[C@@H](O)[C@@H]1[C@@H]2CC[C@@]2(C)[C@H]1CC[C@]2(C)O | – | > 100 µM | – | > 100 µM | – | > 100 µM | – | > 100 µM | – | > 100 µM | – | > 100 µM | – | > 100 µM | – | > 100 µM | – | > 100 µM | – | > 100 µM
4 | NC1CC(=O)c2c(-c3cccs3)sc(-c3cccs3)c21 (stereo not given) | 33.4 µM | > 100 µM | 15.3 µM | 29.9 µM | 25 µM | > 100 µM | 37.3 µM | > 100 µM | 27.9 µM | > 100 µM | 38.7 µM | > 100 µM | 26.1 µM | 92.4 µM | 30.8 µM | > 100 µM | 28 µM | > 100 µM | 10.7 µM | 36.5 µM
5 | C=C1C(=O)O[C@@H]2/C=C(/C)[C@@H](OC(C)=O)C[C@@H](O)/C(C)=C\[C@@H](OC(=O)[C@]3(C)O[C@@H]3C)[C@@H]12 | – | 11.1 µM | – | 13.6 µM | – | 36.3 µM | – | 25 µM | – | 29.9 µM | – | 72.9 µM | – | 23.8 µM | – | 32.3 µM | – | 24.7 µM | – | 24.1 µM
6 | COC(=O)C1=C(C)NC(=S)NC1c1ccc(N(CCCl)CCCl)cc1Cl (stereo not given) | – | 14.6 µM | – | > 100 µM | – | > 73.4 µM | – | > 87.9 µM | – | > 100 µM | – | > 100 µM | – | > 94 µM | – | > 82.8 µM | – | 20.1 µM | – | > 55.4 µM
7 | Nc1nc(N)c2c(ccc3c2ccn3Cc2cccc([N+](=O)[O-])c2)n1 | 0.0562 µM | 1.9 µM | 0.00591 µM | 1.84 µM | 0.0937 µM and 0.129 µM | 2.21 µM and 1.95 µM | 0.00865 µM | 1.77 µM | 1.27 µM | 2.64 µM | 0.00501 µM | 1.89 µM and 1.35 µM | 1.01 µM and 0.794 µM | 2.24 µM and 2.22 µM | 0.163 µM and 0.0201 µM | 2.74 µM and 1.74 µM | 0.0744 µM | 2.15 µM and 1.45 µM | 0.739 µM | 3.05 µM
8 | O=C1OC(OC/C(Br)=C(\Br)COC2OC(=O)C(Cl)=C2Cl)C(Cl)=C1Cl (stereo not given) | – | 5.54 µM | – | 4.56 µM | – | 55.7 µM | – | 10.4 µM | – | 10.3 µM | – | 33.6 µM | – | 14.5 µM | – | 27.8 µM | – | 22.3 µM | – | 34.6 µM
9 | O=C1/C=C/[C@@H](O)[C@@H]2C[C@@H](O)C[C@H]2/C=C/CCC[C@H](CCO)O1 | 0.324 µM | 3.43 µM | 0.215 µM | 0.454 µM | 0.0584 µM | 0.268 µM | 0.155 µM | > 100 µM | 0.182 µM | 0.391 µM | 0.382 µM | > 100 µM | 0.193 µM | 0.5 µM | 0.367 µM | > 100 µM | 0.0201 µM | 0.0423 µM | 0.239 µM | 0.804 µM
10 | COc1cc2ncnc(Oc3ccc(NC(=O)Nc4ccc(CN5CCOCC5)c(C(F)(F)F)c4)c4ccccc34)c2cc1OC | 0.454 µM | 3.16 µM | 0.802 µM | 2.55 µM | 0.199 µM | 2.3 µM | 0.935 µM | 4.14 µM | 1.2 µM | 6.32 µM | 1.37 µM | 3.64 µM | 1.17 µM | 6.15 µM | 1.75 µM | 9.36 µM | 0.499 µM | 2.34 µM | 0.477 µM | 5.17 µM
11 | CCC(=O)NC1=C(Cl)C(=O)C(NC(=O)CC)=C(Cl)C1=O | 5.98 µM | 10.8 µM | 6.89 µM | 17.3 µM | > 43.9 µM | > 57.8 µM | 15.2 µM | 29.9 µM | 16.9 µM | 31.2 µM | > 45.7 µM | > 63.3 µM | 5.14 µM | 9.56 µM | 8.5 µM | 21 µM | 17.6 µM | 31.7 µM | 5.51 µM | 14.2 µM
12 | CC(C)(C)NCC(O)c1ccccc1Cl (stereo not given) | > 100 µM | > 100 µM | > 100 µM | > 100 µM | > 100 µM | > 100 µM | > 100 µM | > 100 µM | > 100 µM | > 100 µM | > 100 µM | > 100 µM | > 100 µM | > 100 µM | > 100 µM | > 100 µM | > 100 µM | > 100 µM | > 100 µM | > 100 µM
13 | C[C@]12CC[C@H]3[C@@H](CC[C@]4(O)C[C@@H](O)CC[C@]34C=O)[C@@]1(O)CC[C@@H]2C1=CC(=O)OC1 | – | 0.61 µM | – | 0.595 µM | – | 6.66 µM | – | 3.51 µM | – | > 29.6 µM | – | 0.591 µM | – | 1.55 µM | – | 4.56 µM | – | 1.16 µM | – | 5.03 µM
14 | OC(c1cc(C(F)(F)F)nc2c(Cl)cc(Cl)cc12)C1CCCCN1 (stereo not given) | – | 21.2 µM | – | > 35.9 µM | – | 19.3 µM | – | > 44 µM | – | > 44.8 µM | – | > 26.7 µM | – | 12.8 µM | – | > 43.1 µM | – | 22.6 µM | – | 19 µM
